Reference: patent US6972291B2, “Method for reducing food intake” (priority 2002, dated 2005)
Structures can show the parent of a compound that is named as a salt. Where two headings read alike, the source gives them in different places.

Key:
patients = assay: Side effects of low-dose naltrexone therapy in patients; format: in vivo, human
From the text: These effects included tiredness, headache, nausea, impaired libido, diminished pleasure in daily activities and difficulty concentrating on complex tasks. Such problems nearly always occur after the first dose or a dosage increase. When they occur, the dose of naltrexone must either be lowered or naltrexone therapy must be discontinued if lower doses are ineffective.
Another side effect that some patients relate is a feeling of mental confusion that impairs concentration upon difficult tasks. Like a headache, this effect is unacceptable. For this reason, a patient typically is started on a very low dose—for example, and without limitation, 1 mg capsules—and the amount of each dose is then increased or decreased until an effective level is reached at which the patient experiences no side effects.
(§1) For each patient described below, the patient was given an initial dose and the dose was then tailored to the patient. The dose of naltrexone was lowered when the patient experienced side effects, including headaches, nausea and/or difficulty concentrating on complex tasks, or if naltrexone is inadequately effective at a higher dose. […] Although “final” values are provided, the study continues unless termination is indicated. The following patients, as well as additional patients are currently being studied. All patients were treated for at least two months, unless released from the study due to adverse effects that were not relieved by reducing the dosage of naltrexone.

squirrel monkeys = details: cited from earlier work
[1] = test system: food or carbohydrate craving in patients; assay: Low-dose naltrexone patient study: subjective naltrexone efficacy rating (zero to ten) on food or carbohydrate craving; format: in vivo, human; design: key to naltrexone efficacy rating: 0 = no benefit on craving, 10 = no food/carbohydrate craving; details: scale zero to ten
From the text: Fifty mg naltrexone tablets (REVIA) were ground, mixed with lactose and dispensed at lower doses into capsules by a compounding chemist according to standard methods in doses indicated in the following examples.
as §1
The “rating” of naltrexone efficacy is a subjective scale of zero to ten. A value of zero means that the patient experiences no beneficial effects upon food or carbohydrate craving when taking naltrexone. A value of ten means that the patient experiences no food or carbohydrate craving after taking naltrexone, and can maintain control even when a tantalizing carbohydrate-laden treat, such as a hot buttered roll, a cookie or ice cream, is placed in front of the patient, even when the patient is hungry. For diabetics, a value of eight or greater is considered a success. In contrast, for obese, non-diabetics, a value of six or greater is considered a success because carbohydrates need to be controlled, but not as diligently controlled as with diabetics.
Of note, one patient who snacked between dinner and bedtime also had insomnia. […] Unless otherwise noted, all patients are diabetics. Patients who experienced a naltrexone efficacy rating of greater than or equal to 8 also experienced a suppression of both carbohydrate craving and any tendency to overeat, in general.

[2] = test system: carbohydrate craving in patients; assay: Timing of naltrexone action on carbohydrate craving in patients (onset, duration); format: in vivo, human
Description: Naltrexone is preferably administered to act at the time(s) of day when overeating or carbohydrate craving occurs. Naltrexone usually starts working about 3–4 hours after it is taken and continues to work for about six hours, but this timing varies from person to person. If a patient overeats only at supper, they might take a dose about 3–4 hours prior to that meal. If their problem is from after lunch until bedtime, they might take a dose after breakfast, after lunch, and before or after supper, all by trial and error, to find the optimal timing. Different amounts of naltrexone also may be administered at different times, depending on a patient's response to each dosage at each time. If the patient experiences carbohydrate cravings at all waking hours, the patient might take a slow-release (extended-release) or timed-release dose at bedtime that would ideally cover the next morning, or take a dose in the middle of the night if the patient awakens to urinate, as many do. The patient then might take additional doses upon arising, before lunch, mid-afternoon, and after supper or a slow-release dose upon arising. […] Finding what works for any given patient's particular pattern of overeating or carbohydrate craving is trial and error. If a patient's problem is only at dinner when they eat out, then they might take the naltrexone about 3–4 hours before the planned dinnertime only on such days.

[3] = test system: food or carbohydrate craving in patients; assay: Low-dose naltrexone patient study: subjective naltrexone efficacy rating (zero to ten) on food or carbohydrate craving; format: in vivo, human; details: obese person
[4] = test system: eating behavior in humans; details: cited from earlier work
animals = details: cited from earlier work
[5] = patients, varies from person to person

Question: For O=C1CC[C@@]2(O)[C@H]3Cc4ccc(O)c5c4[C@@]2(CCN3CC2CC2)[C@H]1O5 [naltrexone HCl, naltrexone hydrochloride], which side effects (patients; Patient 1, even at the final dosage (1 mg three times daily), discontinued treatment) is on record?
Answer: The side effects was “headaches”.

Question: And the side effects (patients; Patient 4, 8 mg twice daily adjusted to 25 mg three times daily, discontinued treatment)?
Answer: Its side effects is “headaches”.

Question: What about the side effects (patients; Patient 12, even at the final dosage (4.5 mg), discontinued treatment) of the same compound?
Answer: The side effects was “headaches”.

Question: And the side effects (patients; Patient 15, final dose 0.25 mg twice daily)?
Answer: Its side effects is “not at the final dose”.

Question: What about the side effects (patients; Patient 15, initial dose 0.75 mg twice daily) of the same compound?
Answer: Its side effects is “decreased libido, confusion, diminished animation and excessive loss of appetite”.

Question: And the side effects (patients; obese person, 3 mg dose)?
Answer: The side effects was “no headache”.

Question: And the side effects (patients; obese person, dose of 2 mg)?
Answer: The side effects was “no headache”.

Question: What about the side effects (patients; obese person, one 4 mg capsule) of the same compound?
Answer: Its side effects is “headache”.

Question: And the side effects (patients; one patient who snacked between dinner and bedtime and had insomnia)?
Answer: Its side effects is “made them tired”.

Question: What about the anorexic effect (squirrel monkeys; doses of 0.22 mg/kg) of the same compound?
Answer: The anorexic effect was “slight anorexic effect”.

Question: And the anorexic effect (squirrel monkeys; higher doses than 0.22 mg/kg)?
Answer: The anorexic effect was “the anorexic effect was greater”.

Question: What about the naltrexone efficacy rating ([1]; Patient 1, diabetic, 207.5 lbs, 12.5 mg twice daily tailored to 1 mg three times daily) of the same compound?
Answer: Its naltrexone efficacy rating is no less than 8.

Question: What about the naltrexone efficacy rating ([1]; Patient 2, diabetic, 256 lbs, 12.5 mg/d tailored to 12.5 mg four times per day) of the same compound?
Answer: The naltrexone efficacy rating was 7 to 8.

Question: What about the naltrexone efficacy rating ([1]; Patient 3, diabetic, 252 lbs, 12.5 mg when eating out tailored to 2 mg twice daily) of the same compound?
Answer: The naltrexone efficacy rating was no less than 8.

Question: What about the naltrexone efficacy rating ([1]; Patient 4, non-diabetic patient, 183 lbs, 8 mg twice daily adjusted to 25 mg three times daily) of the same compound?
Answer: Its naltrexone efficacy rating is 4.

Question: And the naltrexone efficacy rating ([1]; Patient 5, diabetic, 162 lbs, 8 mg after lunch, unchanged)?
Answer: The naltrexone efficacy rating was 10.

Question: What about the naltrexone efficacy rating ([1]; Patient 6, diabetic, 204 lbs, 6 mg twice daily tailored to 1 mg twice a day) of the same compound?
Answer: Its naltrexone efficacy rating is 10.

Question: What about the naltrexone efficacy rating ([1]; Patient 7, polycystic ovarian syndrome, 170 lbs, 6 mg three times daily tailored to 36 mg/d) of the same compound?
Answer: The naltrexone efficacy rating was 8 to 9.

Question: And the naltrexone efficacy rating ([1]; Patient 8, diabetic, 182 lbs, 8 mg after lunch tailored to 8 mg four times daily)?
Answer: Its naltrexone efficacy rating is 9.5.

Question: And the naltrexone efficacy rating ([1]; Patient 9, diabetic, 106 lbs, 25 mg/d tailored to 50 mg/d, low doses not tried)?
Answer: Its naltrexone efficacy rating is less than 8.

Question: And the naltrexone efficacy rating ([1]; Patient 10, diabetic, 161 lbs, 12.5 mg three times daily adjusted to 50 mg three times daily, doses less than 12.5 mg not tried)?
Answer: Its naltrexone efficacy rating is “zero”.

Question: What about the naltrexone efficacy rating ([1]; Patient 11, diabetic, 183 lbs, 8 mg/d tailored to 32 mg/d) of the same compound?
Answer: The naltrexone efficacy rating was no less than 8.

Question: And the naltrexone efficacy rating ([1]; Patient 12, diabetic, 114 lbs, 4 mg after lunch tailored to 4.5 mg)?
Answer: The naltrexone efficacy rating was “zero”.

Question: And the naltrexone efficacy rating ([1]; Patient 13, diabetic, 208 lbs, 5 mg three times per day tailored to 8 mg twice per day)?
Answer: The naltrexone efficacy rating was 8.5.

Question: And the carbohydrate craving rating ([1]; Patient 14, diabetic, 226.5 lbs, 0.1 mg nine times per day adjusted to 50 mg three times daily)?
Answer: Its carbohydrate craving rating is “zero”.

Question: And the naltrexone efficacy rating ([1]; Patient 15, diabetic, 184.25 lbs, 0.75 mg twice daily tailored to 0.25 mg twice daily)?
Answer: The naltrexone efficacy rating was 10.

Question: And the “time covered by one small dose” value ([2]; certain patients)?
Answer: The value was “more than 24 hours”.

Question: What about the “time at which efficacy is apparent” value ([2]; patients, low dose of naltrexone) of the same compound?
Answer: Its value is “apparent by the second day of treatment”.

Question: What about the “time naltrexone continues to work” value [2, 5] of the same compound?
Answer: Its value is “about six”.

Question: And the “time until naltrexone starts working after it is taken” value [2, 5]?
Answer: Its value is 3 to 4 h.

Question: And the effect on cravings ([3]; 3 mg dose)?
Answer: The effect on cravings was “cravings were curbed”.

Question: And the effect on appetite ([3]; dose of 2 mg)?
Answer: The effect on appetite was “appetite was unaffected”.

Question: What about the risk ([4]; DeZwaan et al. review) of the same compound?
Answer: Its risk is “potential for liver damage”.

Question: And the “effect on sweet cravings” value ([4]; humans, Yeomans II, 50 mg, compared to other food categories)?
Answer: Its value is “sweet cravings were not reduced”.

Question: What about the “effect on binge eating” value ([4]; humans, one long-term study, 100 mg doses) of the same compound?
Answer: The value was “binge eating was affected long-term”.

Question: And the “effect on food intake” value ([4]; humans, single-dose studies, short-term doses of 50 mg or greater)?
Answer: The value was “affect food intake”.

Question: What about the “effect on body weight” value (animals) of the same compound?
Answer: The value was “reduces body weight in animals without evidence of drug tolerance”.
